Assay: solubility test of α, β, and γcyclodextrin in water
Conditions: compared with β cyclodextrin

**Q.** For `OC[C@H]1O[C@@H]2O[C@H]3[C@H](O)[C@@H](O)[C@@H](O[C@H]4[C@H](O)[C@@H](O)[C@@H](O[C@H]5[C@H](O)[C@@H](O)[C@@H](O[C@H]6[C@H](O)[C@@H](O)[C@@H](O[C@H]7[C@H](O)[C@@H](O)[C@@H](O[C@H]1[C@H](O)[C@H]2O)O[C@@H]7CO)O[C@@H]6CO)O[C@@H]5CO)O[C@@H]4CO)O[C@@H]3CO` [a], which solubility in water is on record?
**A.** Its solubility in water is “better solubility in water compared to β cyclodextrin”.
